Test results published in PMC12036814 (Angewandte Chemie (International Ed. in English), 2025).
Entries after “also recorded” stand apart in the source; their conditions may differ.

Legend:
IDH2 = target: T1, IDH2 (Homo sapiens, UniProt P48735); assay: IDH2 in vitro activity assay (NADPH-coupled diaphorase/resazurin); assay type: biochemical; details: known inhibitor control
T1 construct: purchased active motif 31615
T1 sequence (P48735 40-452): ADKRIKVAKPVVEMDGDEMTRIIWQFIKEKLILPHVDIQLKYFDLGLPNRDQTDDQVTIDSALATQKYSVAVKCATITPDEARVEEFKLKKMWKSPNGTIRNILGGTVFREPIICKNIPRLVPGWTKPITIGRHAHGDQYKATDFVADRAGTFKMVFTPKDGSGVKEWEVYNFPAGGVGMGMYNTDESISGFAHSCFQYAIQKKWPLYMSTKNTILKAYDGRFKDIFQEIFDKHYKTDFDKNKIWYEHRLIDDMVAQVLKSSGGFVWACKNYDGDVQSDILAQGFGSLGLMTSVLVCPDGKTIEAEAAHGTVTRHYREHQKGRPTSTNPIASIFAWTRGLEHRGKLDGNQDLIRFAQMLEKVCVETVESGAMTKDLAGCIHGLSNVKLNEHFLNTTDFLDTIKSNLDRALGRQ
Description: Recombinant human isocitrate dehydrogenase was purchased from active motif (Carlsbad, USA, Cat#
Activity assays were performed as previously described with minor
modifications.12 Briefly, the catalytic activity of converting is ocitrate to 2-oxogluterate (α-
ketoglutarate) converting the cofactor NADP+ to NADPH was measured by a NADPH-coupled assay.
The NADPH-dependent diaphorase (Sigma-Aldrich, St. Louis, USA, Cat# SLBT8928) converted resazurin
for activity read-out. To IDH2 (2 nM) in assay buffer (150 mM NaCl, 50 mM K2HPO4, 10 mM MnCl2, 10
mercaptoethanol (cend= 2.5 mM) for a total reaction volume of 79 µL per well (black 96-well plate, 4
replicates per condition). Conditions lacking IDH2 were added as control. After addition of 1 µL of
vehicle controls, the mixture was incubated at 25 °C for 1 h in the dark. Subsequently, the reaction was
initiated by addition of 20 µL of substrate mix (0.2 mM isocitrate, 60 µg/mL diaphorase, 200 µM
resazurin in assay buffer). Fluorescence was continuously measured using an Infinite M200 pro (Tecan,
the fluorescence increases were calculated via linear regression using GraphPad Prism (version 9).

ADAL1 = target: T2, ADAL1 (Homo sapiens, UniProt Q6DHV7); assay: ADAL1 in vitro activity assay (N6-methyl-AMP absorbance shift); assay type: biochemical; details: tested up to 500 µM
T2 construct: Full length ADAL1 gene synthesis; made in house; host or cells: E. coli BL21 (DE3)
T2 sequence (Q6DHV7 1-355): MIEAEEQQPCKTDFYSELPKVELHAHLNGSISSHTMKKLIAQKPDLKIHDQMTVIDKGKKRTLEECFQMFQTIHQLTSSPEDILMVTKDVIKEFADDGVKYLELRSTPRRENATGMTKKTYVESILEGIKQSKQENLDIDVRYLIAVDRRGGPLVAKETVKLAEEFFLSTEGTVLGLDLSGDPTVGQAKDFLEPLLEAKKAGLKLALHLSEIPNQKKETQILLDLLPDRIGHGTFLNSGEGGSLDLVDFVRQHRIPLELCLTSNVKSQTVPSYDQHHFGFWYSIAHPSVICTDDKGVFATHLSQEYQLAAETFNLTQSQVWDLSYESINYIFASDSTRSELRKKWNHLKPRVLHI
Description: Cytiva, Marlborough, USA, Cat# 6818-1304). Nickel-affinity chromatography purification was
performed with Äkta Pure system (GE Healthcare, Chicago, USA) using an HisTrap HP (5 mL, Cytiva,
Marlborough, USA, Cat# 17-5248) column equilibrated in buffer A. The filtered lysate was applied via
the sample pump and subsequently the column was washed for 15 column volumes (CV) with buffer
A, before gradient elution with buffer B (50 mM Tris pH 8.0, 300 mM NaCl, 5 mM β-mercaptoethanol,
0.1% (v/v) NP40, 10% (v/v) glycerol and 400 mM imidazole) from 0% to 100% buffer B over for 25 CV.
ADAL1 containing fraction s were identified via SDS-PAGE, pooled and dialyzed in buffer 1 (20 mM Tris
pH 8.0, 1 mM DTT, 10% (v/v) glycerol ) in a dialysis membrane ( Carl Roth, Karlsruhe, Germany, Cat#
E659.1) overnight at 4 °C. […]
methyl-AMP (Cayman Chemical, Ann Arbor, USA, Cat# 23382) to […] by ADAL1 was monitored by
the shift of the absorbance maxima of educt ( 265 nm) and product (250 nm). […]
substrate N6-methyl-AMP (1 µL of 20 mM stock in PBS). The absorbance at 270 nm was continuously
measured using a Infinite M200 Pro (Tecan, Männedorf, Switzerland) plate reader. […]
the absorbance readings were calculated via linear regression using GraphPad Prism (version 9). […]
residual activity of compound treated protein was determined in comparison to vehicle -treated […]

[1] = test system: periodontal ligament cell line (PDL‐hTERT); assay: Whole proteome analysis and pathway analysis of treated PDL-hTERT cells; assay type: cell-based, human; parameters: dose or concentration left out as unconfirmed; details: same concentrations ([…] and […] µM), 3 days, compared with Ciprofloxacin
NUDT1 = NUDT1 (Homo sapiens, UniProt P36639); assay: NUDT1 in vitro activity assay (malachite green); assay type: biochemical; parameters: Full length NUDT1 gene synthesis; N-terminal His tag with thrombin site from pET28a(+) (NdeI/XhoI) (N, cleaved yes); made in house; host or cells: E. coli BL21 (DE3); details: tested 1-500 µM; highest tested 500 µM
[2] = test system: HEK‐293 and PDL‐hTERT cells; assay: MTT assay, relative metabolic activity after 3 days; assay type: cell-based, human; details: 3 days of treatment
Description: Methods and Experimental Procedures
(Alfa Aesar, Haverhill, USA, Cat# J66943 ) stocks were prepared in sterile -filtered 0.1 N HCl to a
maximum concentration of 50 mM. HCl was used as vehicle control, diluted in culture medium, and
Cell culture experiments were performed in HEK 293, A549 or PDL-hTERT cells1 cultured in DMEM high
glucose medium supplemented with 10% FCS and 2 mM glutamine ( all, Sigma-Aldrich, St. Louis, USA,
Cat# G7513) in 5% CO2 atmosphere at 37 °C in Heracell 150i incubators (Thermo Fisher Scientific,
Waltham, USA). The human periodontal ligament (PDL -hTERT) cell line was provided by Prof. Denitsa
Docheva. During standard cell passaging accutase (Sigma-Aldrich) or 2,5x trypsin/0.5% EDTA in PBS
(Capricorn Scientific, Ebsdorfergrund, Germany) was used for cell detachment. Cell dishes in various
sizes (10 cm, 15 cm) and flasks (T75, T175) were used for cultivation (Sarstedt, Nümbrecht, Germany,
purchased from Thermo Fisher Scientific, Waltham, USA, Cat# 130184, 130188.
HEK or PDL-hTERT cells (1,5 x 10^3 cells/well) were seeded into 96 -well plates and grown for 24 h. […]
removed by suction and the formed formazan crystals dissolved in 200 μL DMSO. The read-out was
performed with an Infinite M200 Pro microplate reader (Tecan, Männedorf, Switzerland) at 570 nm
and background was subtracted at 630 nm. The absorbance values were normalized to DMSO/0.1 N […]

| extent of IDH2 (wild-type) inhibition compared with the FQs (IDH2) | SMILES | ADAL1 in vitro activity, effect (ADAL1) | regulation of ETC complex I and IV subunits [1] | NUDT1 in vitro activity, inhibition (NUDT1) | approximate apparent IC50 (metabolic activity, MTT) [2] |
| --- | --- | --- | --- | --- | --- |
| similar | CC(C)(O)CNc1nc(Nc2ccnc(C(F)(F)F)c2)nc(-c2cccc(C(F)(F)F)n2)n1 [Enadisenib, Enasidenib] |  |  |  |  |
|  | C[C@H]1COc2c(N3CCN(C)CC3)c(F)cc3c(=O)c(C(=O)O)cn1c23 [Levofloxacin] | no significant effect; also recorded: no inhibitory effect was detected | also observed using the same concentrations, although to a lesser extent | only at the highest tested concentration (500 µM); also recorded: only significant at the highest concentration tested | well above the reported plasma concentrations |
